How the values were obtained:
[1] = molecular target: T1, recombinant guanylate cyclase reporter cell line (Rattus norvegicus, UniProt P19686+P20595); assay: Action on recombinant guanylate cyclase reporter cell line; assay type: cell-based
T1 construct: expressed in transfected cells
T1 sequence (P20595 1-619): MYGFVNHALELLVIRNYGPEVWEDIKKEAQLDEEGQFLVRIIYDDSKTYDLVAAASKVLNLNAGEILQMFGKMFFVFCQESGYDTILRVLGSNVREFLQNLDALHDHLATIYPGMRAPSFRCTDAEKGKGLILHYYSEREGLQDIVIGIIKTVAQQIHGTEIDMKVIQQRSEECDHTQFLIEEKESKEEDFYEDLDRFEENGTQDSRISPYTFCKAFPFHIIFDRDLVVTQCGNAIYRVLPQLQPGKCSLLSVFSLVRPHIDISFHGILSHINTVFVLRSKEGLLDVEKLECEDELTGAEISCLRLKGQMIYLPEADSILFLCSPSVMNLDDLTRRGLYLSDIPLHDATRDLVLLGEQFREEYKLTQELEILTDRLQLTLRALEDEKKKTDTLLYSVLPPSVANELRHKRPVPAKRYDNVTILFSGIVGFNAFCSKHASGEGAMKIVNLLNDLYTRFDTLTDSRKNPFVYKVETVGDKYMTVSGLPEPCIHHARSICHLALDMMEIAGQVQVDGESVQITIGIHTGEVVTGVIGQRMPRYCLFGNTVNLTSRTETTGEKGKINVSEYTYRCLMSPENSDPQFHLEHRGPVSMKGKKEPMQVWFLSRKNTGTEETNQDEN
T1 sequence (P19686 1-690): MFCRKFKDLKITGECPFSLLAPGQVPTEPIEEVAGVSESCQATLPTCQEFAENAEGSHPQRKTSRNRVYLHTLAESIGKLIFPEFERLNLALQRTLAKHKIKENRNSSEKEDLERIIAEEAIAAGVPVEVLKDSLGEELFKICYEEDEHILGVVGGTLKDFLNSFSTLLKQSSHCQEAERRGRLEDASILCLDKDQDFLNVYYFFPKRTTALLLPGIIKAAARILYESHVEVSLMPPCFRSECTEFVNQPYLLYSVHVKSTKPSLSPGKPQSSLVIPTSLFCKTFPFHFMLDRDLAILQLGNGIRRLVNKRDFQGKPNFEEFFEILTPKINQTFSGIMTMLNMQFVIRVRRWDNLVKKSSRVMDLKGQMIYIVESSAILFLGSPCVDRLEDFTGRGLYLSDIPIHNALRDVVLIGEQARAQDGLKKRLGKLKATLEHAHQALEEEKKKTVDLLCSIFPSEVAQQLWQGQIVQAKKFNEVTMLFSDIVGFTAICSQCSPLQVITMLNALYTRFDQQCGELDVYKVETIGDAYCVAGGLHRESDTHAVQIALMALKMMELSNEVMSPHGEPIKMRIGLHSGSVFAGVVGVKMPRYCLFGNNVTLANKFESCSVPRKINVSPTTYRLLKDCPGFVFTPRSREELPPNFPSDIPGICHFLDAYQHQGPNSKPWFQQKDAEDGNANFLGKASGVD
Description: B-2. Action on Recombinant Guanylate Cyclase Reporter Cell Line
The cellular action of the compounds according to the invention is determined on a recombinant guanylate cyclase reporter cell line, as described in F. Wunder et al., Anal. Biochem. 339, 104-112 (2005).

aorta = assay: Vessel-relaxing action in vitro (phenylephrine-contracted aorta rings); conditions: Oryctolagus cuniculus; rabbit aorta rings, phenylephrine contraction; concentration reducing control contraction by 50%
Description: B-1. Vessel-Relaxing Action In Vitro
Rabbits are stunned with a blow on the back of the neck and exsanguinated. The aorta is removed, freed from adhering tissue, separated into rings with a width of 1.5 mm, and placed individually, with preloading, in 5-ml organ baths with carbogen-gassed Krebs-Henseleit solution at 37° C. with the following composition (mM in each case): sodium chloride: 119; potassium chloride: 4.8; calcium chloride dihydrate: 1; magnesium sulphate heptahydrate: 1.4; potassium dihydrogen phosphate: 1.2; sodium hydrogen carbonate: 25; glucose: 10. The contraction force is recorded with Statham UC2 cells, amplified and digitized via an A/D converter (DAS-1802 HC, Keithley Instruments Munich) and recorded in parallel on a continuous-line recorder. To produce contraction, phenylephrine is added to the bath cumulatively in increasing concentration. After several control cycles, the test substance is added in increasing dosage in each subsequent pass and the level of contraction is compared with the level of contraction reached in the immediately preceding pass. This is used for calculating the concentration that is required to reduce the level of the control value by 50% (IC50 value). The standard application volume is 5 μl, and the proportion of DMSO in the bath solution corresponds to 0.1%.

[2] = Determination of pharmacokinetic parameters after intravenous administration in rats; assay type: in vivo, rat; conditions: intravenous administration of 0.3 mg/kg; for MRT / half-life: male, Wistar, rat, plasma; for MRT: read-out: mean residence time; for half-life: read-out: terminal half-life (converted)
Description: B-4. Determination of Pharmacokinetic Parameters after Intravenous and Oral Administration
The pharmacokinetic parameters of the compounds of the formula (I) according to the invention are determined in male CD-1 mice, male Wistar rats and/or female beagles. The administration volume is 5 ml/kg for mice, 5 ml/kg for rats and 0.5 ml/kg for dogs. Intravenous administration is via a formulation of species-specific plasma/DMSO (99/1) in the case of mice and rats and via water/PEG400/ethanol (50/40/10 or 30/60/10) in the case of dogs. For easier removal of blood, a silicone catheter is inserted into the right Vena jugularis externa of the rats before the administration of substance. The surgical intervention takes place one day prior to the experiment with isofluran anaesthesia and administration of an analgetic (atropine/rimadyl (3/1) 0.1 ml s.c.). Substance administration is as i.v. bolus in the case of mice and rats and via a 15-minute infusion in the case of dogs. Removal of blood is after 0.033, 0.083, 0.17, 0.5, 1, 2, 3, 4, 6, 7 and 24 hours in the case of rats, after 0.033, 0.083, 0.17, 0.5, 1, 2, 3, 4, 6, 7, 24, 48 and 72 hours in the case of mice and after 0.083, 0.25, 0.28 0.33, 0.42, 0.75, 1, 2, 3, 4, 6, 7 and 24 hours in the case of dogs. For all species, oral administration of the dissolved substance via gavage is carried out based on a water/PEG400/ethanol formulation (50/40/10). Here, the removal of blood from rats is after 0.083, 0.17, 0.5, 0.75, 1, 2, 3, 4, 6, 7 and 24 hours and from dogs after 0.083, 0.17, 0.5, 0.75, 1, 2, 3, 4, 6, 7, 24, 30 and 48 hours. The blood is removed into heparinized tubes. The blood plasma is then obtained by centrifugation; if required, it can be stored at −20° C. until further processing.
An internal standard (ZK 228859) is added to the samples of the compounds of the formula (I) according to the invention, calibration samples and QCs, and the protein is precipitated using excess acetonitrile. After addition of an ammonium acetate buffer (0.01 M, pH 6.8) and subsequent vortexing, the mixture is centrifuged at 1000 g and the supernatant is examined by LC-MS/MS (API 4000, AB Sciex). Chromatographic separation is carried out on an Agilent 1100-HPLC. The injection volume is 10 μl. The separation column used is a Phenomenex Luna 5μ C8(2) 100 A 50×2 mm, adjusted to a temperature of 40° C. A binary mobile phase gradient at 500 μl/min is used (A: 0.01 M ammonium acetate buffer pH 6.8, B: 0.1% formic acid in acetonitrile): 0 min (90% A), 1 min (90% A), 3 min (15% A), 4 min (15% A), 4.50 min (90% A), 6 min (90% A). The temperature of the Turbo V ion source is 500° C. The following MS instrument parameters are used: curtain gas 15 units, ion spray voltage 4.8 kV, gas 1 45 units, gas 2 35 units, CAD gas 40 units. The substances are quantified by peak heights or areas using extracted ion chromatograms of specific MRM experiments.
The pharmacokinetic parameters such as AUC, Cmax, t1/2 (terminal half-life), MRT (mean residence time) and CL (clearance) are calculated by means of the validated pharmacokinetics calculation program KinEx (Vers. 2.5 and 3) from the plasma concentration-time curves obtained.
As substance quantification takes place in plasma, the blood/plasma distribution of the substance must be determined for appropriate adjustment of the pharmacokinetic parameters. For this, a defined amount of the substance in heparinized whole blood of the corresponding species is incubated for 20 min in the tumbling roller mixer. After centrifugation at 1000 g, the plasma concentration is measured (see above) and the Cblood/Cplasma value is determined by finding the quotient.
Following intravenous administration of 0.3 mg/kg of Example 1, 18, 19 and 27 in rats, the following values were recorded: […]

SMILES	MEC (minimal effective concentration) [1]	IC50 (aorta)	CLblood [2]	MRT [2]	half-life [2]
CC1(C)C(=O)Nc2nc(-c3nn(Cc4ccccc4F)c4ncccc34)ncc21 [Example 1, 2-[1-(2-Fluorobenzyl)-1H-pyrazolo[3,4-b]pyridin-3-yl]-5,5-dimethyl-5,7-dihydro-6H-pyrrolo[2,3-d]pyrimidin-6-one]	0.01 µM	12 nM	18.3 mL/min/kg	1.2 h	0.9 h
O=C1Nc2nc(-c3nn(Cc4ccccc4F)c4ncccc34)ncc2C1(O)C(F)(F)F (stereo not drawn) [Example 18, 2-[1-(2-Fluorobenzyl)-1H-pyrazolo[3,4-b]pyridin-3-yl]-5-hydroxy-5-(trifluoromethyl)-5,7-dihydro-6H-pyrrolo[2,3-d]pyrimidin-6-one]	0.03 µM	93 nM	7.67 mL/min/kg	1.9 h	1.4 h
CC1(C)C(=O)Nc2nc(-c3nn(Cc4cccc(F)c4F)c4ncc(F)cc34)nnc21 [Example 20, 3-[1-(2,3-Difluorobenzyl)-5-fluoro-1H-pyrazolo[3,4-b]pyridin-3-yl]-7,7-dimethyl-5,7-dihydro-6H-pyrrolo[2,3-e][1,2,4]triazin-6-one]	0.03 µM	45 nM	–	–	–
CC1(F)C(=O)Nc2nc(-c3nn(Cc4ccccc4F)c4ncccc34)ncc21 (stereo not drawn) [Example 23, 5-Fluoro-2-[1-(2-fluorobenzyl)-1H-pyrazolo[3,4-b]pyridin-3-yl]-5-methyl-5,7-dihydro-6H-pyrrolo[2,3-d]pyrimidin-6-one]	0.03 µM	15 nM	–	–	–
CC(C)(C)OC(=O)CC1(O)C(=O)Nc2nc(-c3nn(Cc4ccccc4F)c4ncccc34)ncc21 (stereo not drawn) [Example 24, tert-Butyl {2-[1-(2-fluorobenzyl)-1H-pyrazolo[3,4-b]pyridin-3-yl]-5-hydroxy-6-oxo-6,7-dihydro-5H-pyrrolo[2,3-d]pyrimidin-5-yl}acetate]	0.3 µM	269 nM	–	–	–
COC(=O)NC1C(=O)Nc2nc(-c3nn(Cc4ccccc4F)c4ncccc34)ncc21 (stereo not drawn) [Example 26, Methyl {2-[1-(2-fluorobenzyl)-1H-pyrazolo[3,4-b]pyridin-3-yl]-6-oxo-6,7-dihydro-5H-pyrrolo[2,3-d]pyrimidin-5-yl}carbamate]	0.3 µM	840 nM	–	–	–
CC1(C)C(=O)Nc2nc(-c3nn(Cc4cccc(F)c4F)c4ncccc34)nnc21 [Example 27, 3-[1-(2,3-Difluorobenzyl)-1H-pyrazolo[3,4-b]pyridin-3-yl]-7,7-dimethyl-5,7-dihydro-6H-pyrrolo[2,3-e][1,2,4]triazin-6-one]	0.03 µM	54 nM	5.83 mL/min/kg	7.3 h	5.6 h
CC1(C)C(=O)Nc2nc(-c3nn(Cc4ccc(F)cc4F)c4ncccc34)nnc21 [Example 28, 3-[1-(2,4-Difluorobenzyl)-1H-pyrazolo[3,4-b]pyridin-3-yl]-7,7-dimethyl-5,7-dihydro-6H-pyrrolo[2,3-e][1,2,4]triazin-6-one]	0.3 µM	103 nM	–	–	–
O=C1Nc2nc(-c3nn(Cc4ccccc4F)c4ncc(F)cc34)ncc2C12CC2 [Example 30, 2′-[5-Fluoro-1-(2-fluorobenzyl)-1H-pyrazolo[3,4-b]pyridin-3-yl]spiro[cyclopropane-1,5′-pyrrolo[2,3-d]pyrimidin]-6′(7′H)-one]	0.03 µM	97 nM	–	–	–
